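Cells were grown in 96-well plates and exposed to each compound for 48 hours at five concentrations; endpoints were interpolated linearly between bracketing concentrations, or set to the highest concentration if not reached. At the TGI there is no net growth.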
Columns and labels:
Assay in all cases: inhibition of tumour cell growth, NCI panel, 48 h
SF-539 CNS = system: SF-539 CNS
EKVX NSCLC = system: EKVX NSCLC
OVCAR-5 ovarian = system: OVCAR-5 ovarian
IGROV1 ovarian = system: IGROV1 ovarian
SK-OV-3 ovarian = system: SK-OV-3 ovarian
CCRF-CEM leukemia = system: CCRF-CEM leukemia
HT29 colon = system: HT29 colon
SK-MEL-2 melanoma = system: SK-MEL-2 melanoma
OVCAR-4 ovarian = system: OVCAR-4 ovarian
M14 melanoma = system: M14 melanoma
786-0 renal = system: 786-0 renal
NCI-H23 lung = system: NCI-H23 lung
SK-MEL-5 melanoma = system: SK-MEL-5 melanoma
HOP-62 NSCLC = system: HOP-62 NSCLC
HCT-116 colon = system: HCT-116 colon
TK-10 renal = system: TK-10 renal
HCT-15 colon = system: HCT-15 colon
SNB-75 CNS = system: SNB-75 CNS
SK-MEL-28 melanoma = system: SK-MEL-28 melanoma
SNB-78 CNS = system: SNB-78 CNS
DLD-1 colon = system: DLD-1 colon
LOX IMVI melanoma = system: LOX IMVI melanoma
A549 NSCLC = system: A549 NSCLC
KM12 colon = system: KM12 colon
DMS 273 small cell lung = system: DMS 273 small cell lung
OVCAR-3 ovarian = system: OVCAR-3 ovarian
COLO 205 colon = system: COLO 205 colon
SF-268 CNS = system: SF-268 CNS
NCI-H460 lung = system: NCI-H460 lung
OVCAR-8 ovarian = system: OVCAR-8 ovarian
U251 CNS = system: U251 CNS
SR leukemia = system: SR leukemia
NCI-H226 lung = system: NCI-H226 lung
RPMI-8226 leukemia = system: RPMI-8226 leukemia
HL-60(TB) leukemia = system: HL-60(TB) leukemia
LXFL 529 NSCLC = system: LXFL 529 NSCLC
UACC-257 melanoma = system: UACC-257 melanoma
UO-31 renal = system: UO-31 renal
HOP-92 NSCLC = system: HOP-92 NSCLC
MOLT-4 leukemia = system: MOLT-4 leukemia
M19-MEL melanoma = system: M19-MEL melanoma
K-562 leukemia = system: K-562 leukemia
KM20L2 colon = system: KM20L2 colon
HOP-18 NSCLC = system: HOP-18 NSCLC
SN12C renal = system: SN12C renal
SF-295 CNS = system: SF-295 CNS
HCC-2998 colon = system: HCC-2998 colon
ACHN renal = system: ACHN renal
NCI-H522 lung = system: NCI-H522 lung
UACC-62 melanoma = system: UACC-62 melanoma
SNB-19 CNS = system: SNB-19 CNS
RXF 393 renal = system: RXF 393 renal
RXF-631 renal = system: RXF-631 renal
MALME-3M melanoma = system: MALME-3M melanoma
CAKI-1 renal = system: CAKI-1 renal
SW-620 colon = system: SW-620 colon
DMS 114 small cell lung = system: DMS 114 small cell lung
A498 renal = system: A498 renal

Measured: TGI

COc1cc2cnc3c4cc(OC)c(OC(C)C)cc4ccc3c2cc1OC
not listed: A498 renal
> 100 µM: all other assays above

CC(C)(C)OC1=C(OC(C)(C)C)C(O)(c2ccc(Cl)cc2)C1=O (stereo unspecified)
not listed: SK-MEL-2 melanoma | HOP-62 NSCLC | HCT-116 colon | NCI-H226 lung | UACC-257 melanoma | HOP-92 NSCLC | KM20L2 colon | NCI-H522 lung | CAKI-1 renal
> 100 µM: all other assays above

— PubChem BioAssay (NCI)
